According to ChEMBL document CHEMBL1177794, “Broad spectrum alkynyl inhibitors of T315I Bcr-Abl” (Bioorg Med Chem Lett, 2010):

Experiments:
[1] = target: 5'-AMP-activated protein kinase catalytic subunit alpha-2 (Homo sapiens) (UniProt P54646); experiment: Inhibition of AMPK-alpha2 at 10 uM; details: values are per cent of control
[2] = target: Aurora kinase A (Homo sapiens) (UniProt O14965); experiment: Inhibition of AURKA at 10 uM; details: values are per cent of control
[3] = target: Serine/threonine-protein kinase B-raf (Homo sapiens) (UniProt P15056); experiment: Inhibition of BRAF at 10 uM; details: values are per cent of control
[4] = target: Dual specificity protein kinase CLK1 (Homo sapiens) (UniProt P49759); experiment: Inhibition of CLK1 at 10 uM; details: values are per cent of control
[5] = target: Dual specificity protein kinase CLK4 (Homo sapiens) (UniProt Q9HAZ1); experiment: Inhibition of CLK4 at 10 uM; details: values are per cent of control
[6] = target: Dual specificity tyrosine-phosphorylation-regulated kinase 2 (Homo sapiens) (UniProt Q92630); experiment: Inhibition of DYRK2 at 10 uM; details: values are per cent of control
[7] = target: Ephrin type-B receptor 1 (Homo sapiens) (UniProt P54762); experiment: Inhibition of EPHB1 at 10 uM; details: values are per cent of control
[8] = target: Ephrin type-B receptor 6 (Homo sapiens) (UniProt O15197); experiment: Inhibition of EPHB6 at 10 uM; details: values are per cent of control
[9] = target: Mitogen-activated protein kinase 4 (Homo sapiens) (UniProt P31152); experiment: Inhibition of ERK4 at 10 uM; details: values are per cent of control
[10] = target: Mitogen-activated protein kinase 15 (Homo sapiens) (UniProt Q8TD08); experiment: Inhibition of ERK8 at 10 uM; details: values are per cent of control
[11] = target: Fibroblast growth factor receptor 3 (Homo sapiens) (UniProt P22607); experiment: Inhibition of FGFR3 at 10 uM; details: values are per cent of control
[12] = tested on: Fibroblast growth factor receptor 3 (Homo sapiens), P22607 [G697C]; experiment: Inhibition of FGFR3 G697C mutant at 10 uM; details: values are per cent of control
[13] = target: Inhibitor of nuclear factor kappa-B kinase subunit alpha (Homo sapiens) (UniProt O15111); experiment: Inhibition of IKK-alpha at 10 uM; details: values are per cent of control
[14] = target: Microtubule-associated serine/threonine-protein kinase 1 (Homo sapiens) (UniProt Q9Y2H9); experiment: Inhibition of MAST1 at 10 uM; details: values are per cent of control
[15] = target: Dual specificity mitogen-activated protein kinase kinase 5 (Homo sapiens) (UniProt Q13163); experiment: Inhibition of MEK5 at 10 uM; details: values are per cent of control
[16] = target: Tyrosine-protein kinase Mer (Homo sapiens) (UniProt Q12866); experiment: Inhibition of MERTK at 10 uM; details: values are per cent of control
[17] = target: Serine/threonine-protein kinase Nek1 (Homo sapiens) (UniProt Q96PY6); experiment: Inhibition of NEK1 at 10 uM
[18] = target: Serine/threonine-protein kinase PAK 1 (Homo sapiens) (UniProt Q13153); experiment: Inhibition of PAK1 at 10 uM
[19] = target: Serine/threonine-protein kinase TAO1 (Homo sapiens) (UniProt Q7L7X3); experiment: Inhibition of TAOK1 at 10 uM
[20] = target: Serine/threonine-protein kinase TNNI3K (Homo sapiens) (UniProt Q59H18); experiment: Inhibition of TNNI3K at 10 uM; details: values are per cent of control
[21] = target: Mitogen-activated protein kinase kinase kinase 20 (Homo sapiens) (UniProt Q9NYL2); experiment: Inhibition of ZAK at 10 uM; details: values are per cent of control
[22] = target: Tyrosine-protein kinase ZAP-70 (Homo sapiens) (UniProt P43403); experiment: Inhibition of ZAP70 at 10 uM; details: values are per cent of control
[23] = target: Phosphorylase b kinase gamma catalytic chain, liver/testis isoform (Homo sapiens) (UniProt P15735); experiment: Inhibition of PHKG2 at 10 uM
[24] = tested on: Phosphatidylinositol 4,5-bisphosphate 3-kinase catalytic subunit alpha isoform (Homo sapiens), P42336 [E542K]; experiment: Inhibition of PIK3CA E542K mutant at 10 uM
[25] = target: Receptor-interacting serine/threonine-protein kinase 1 (Homo sapiens) (UniProt Q13546); experiment: Inhibition of RIPK1 at 10 uM; details: values are per cent of control
[26] = target: Receptor-interacting serine/threonine-protein kinase 2 (Homo sapiens) (UniProt O43353); experiment: Inhibition of RIPK2 at 10 uM; details: values are per cent of control
[27] = target: Ribosomal protein S6 kinase alpha-4 (Homo sapiens) (UniProt O75676); experiment: Inhibition of RPS6KA4 C-terminal domain2 at 10 uM
[28] = target: Tyrosine-protein kinase Fyn (Homo sapiens) (UniProt P06241); experiment: Inhibition of FYN at 10 uM; values are per cent of control
[29] = target: Tyrosine-protein kinase ITK/TSK (Homo sapiens) (UniProt Q08881); experiment: Inhibition of ITK at 10 uM; values are per cent of control
[30] = target: Tyrosine-protein kinase Lyn (Homo sapiens) (UniProt P07948); experiment: Inhibition of LYN at 10 uM; values are per cent of control
[31] = target: Serine/threonine-protein kinase SIK1 (Homo sapiens) (UniProt P57059); experiment: Inhibition of SIK at 10 uM; values are per cent of control
[32] = target: Epidermal growth factor receptor (Homo sapiens) (UniProt P00533); experiment: Inhibition of EGFR at 10 uM; values are per cent of control
[33] = target: Mitogen-activated protein kinase 1 (Homo sapiens) (UniProt P28482); experiment: Inhibition of ERK2 at 10 uM; values are per cent of control
[34] = target: Mitogen-activated protein kinase 7 (Homo sapiens) (UniProt Q13164); experiment: Inhibition of ERK5 at 10 uM; values are per cent of control
[35] = target: High affinity nerve growth factor receptor (Homo sapiens) (UniProt P04629); experiment: Inhibition of TRKA at 10 uM; values are per cent of control
[36] = target: Serine/threonine-protein kinase Chk2 (Homo sapiens) (UniProt O96017); experiment: Inhibition of CHEK2 at 10 uM; values are per cent of control
[37] = target: Ephrin type-A receptor 5 (Homo sapiens) (UniProt P54756); experiment: Inhibition of EPHA5 at 10 uM; values are per cent of control
[38] = target: Platelet-derived growth factor receptor beta (Homo sapiens) (UniProt P09619); experiment: Inhibition of PDGFRB at 10 uM; values are per cent of control
[39] = target: Casein kinase I isoform gamma-1 (Homo sapiens) (UniProt Q9HCP0); experiment: Inhibition of CSNK1G1 at 10 uM; values are per cent of control
[40] = tested on: Epidermal growth factor receptor (Homo sapiens), P00533 [UNDEFINED MUTATION]; experiment: Inhibition of EGFR L747-E749del, A750P mutant at 10 uM; values are per cent of control

Sequence of Receptor-interacting serine/threonine-protein kinase 2 (Homo sapiens) (O43353 whole entry, the tested form may be a part): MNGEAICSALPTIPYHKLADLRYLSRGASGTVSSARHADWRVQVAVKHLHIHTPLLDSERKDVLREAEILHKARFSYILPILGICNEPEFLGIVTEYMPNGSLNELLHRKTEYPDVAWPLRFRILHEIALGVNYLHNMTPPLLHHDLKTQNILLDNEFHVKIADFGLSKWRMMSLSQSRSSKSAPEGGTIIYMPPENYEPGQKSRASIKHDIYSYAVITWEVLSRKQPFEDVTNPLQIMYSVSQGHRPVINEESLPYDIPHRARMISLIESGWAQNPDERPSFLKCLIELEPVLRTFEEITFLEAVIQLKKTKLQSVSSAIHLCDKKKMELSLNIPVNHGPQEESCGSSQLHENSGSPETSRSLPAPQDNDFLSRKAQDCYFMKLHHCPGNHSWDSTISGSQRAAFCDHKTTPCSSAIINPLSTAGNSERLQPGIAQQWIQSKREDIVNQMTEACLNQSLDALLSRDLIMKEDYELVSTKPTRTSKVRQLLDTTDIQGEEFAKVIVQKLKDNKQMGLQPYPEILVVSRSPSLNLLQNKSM
Sequence of High affinity nerve growth factor receptor (Homo sapiens) (P04629 33-796 limits assumed): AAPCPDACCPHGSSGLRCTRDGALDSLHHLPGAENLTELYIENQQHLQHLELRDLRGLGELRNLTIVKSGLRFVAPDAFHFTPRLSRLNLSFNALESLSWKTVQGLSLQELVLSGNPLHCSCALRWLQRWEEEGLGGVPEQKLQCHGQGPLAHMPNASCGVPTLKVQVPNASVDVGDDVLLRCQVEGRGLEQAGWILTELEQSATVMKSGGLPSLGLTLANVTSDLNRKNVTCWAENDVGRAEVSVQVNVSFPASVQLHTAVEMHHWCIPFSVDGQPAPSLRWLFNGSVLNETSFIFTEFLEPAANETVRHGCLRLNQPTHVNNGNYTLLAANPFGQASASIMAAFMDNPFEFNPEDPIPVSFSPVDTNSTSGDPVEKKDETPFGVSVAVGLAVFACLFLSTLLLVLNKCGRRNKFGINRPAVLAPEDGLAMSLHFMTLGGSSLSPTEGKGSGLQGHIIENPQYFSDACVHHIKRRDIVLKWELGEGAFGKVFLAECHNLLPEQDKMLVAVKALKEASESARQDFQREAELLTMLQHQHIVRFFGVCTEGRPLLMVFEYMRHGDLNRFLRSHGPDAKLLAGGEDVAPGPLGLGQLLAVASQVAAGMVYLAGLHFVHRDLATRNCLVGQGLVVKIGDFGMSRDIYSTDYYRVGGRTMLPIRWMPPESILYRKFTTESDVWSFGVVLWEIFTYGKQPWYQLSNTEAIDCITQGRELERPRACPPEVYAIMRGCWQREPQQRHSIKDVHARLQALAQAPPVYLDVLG
Sequence of Fibroblast growth factor receptor 3 (Homo sapiens) (P22607 23-806 limits assumed): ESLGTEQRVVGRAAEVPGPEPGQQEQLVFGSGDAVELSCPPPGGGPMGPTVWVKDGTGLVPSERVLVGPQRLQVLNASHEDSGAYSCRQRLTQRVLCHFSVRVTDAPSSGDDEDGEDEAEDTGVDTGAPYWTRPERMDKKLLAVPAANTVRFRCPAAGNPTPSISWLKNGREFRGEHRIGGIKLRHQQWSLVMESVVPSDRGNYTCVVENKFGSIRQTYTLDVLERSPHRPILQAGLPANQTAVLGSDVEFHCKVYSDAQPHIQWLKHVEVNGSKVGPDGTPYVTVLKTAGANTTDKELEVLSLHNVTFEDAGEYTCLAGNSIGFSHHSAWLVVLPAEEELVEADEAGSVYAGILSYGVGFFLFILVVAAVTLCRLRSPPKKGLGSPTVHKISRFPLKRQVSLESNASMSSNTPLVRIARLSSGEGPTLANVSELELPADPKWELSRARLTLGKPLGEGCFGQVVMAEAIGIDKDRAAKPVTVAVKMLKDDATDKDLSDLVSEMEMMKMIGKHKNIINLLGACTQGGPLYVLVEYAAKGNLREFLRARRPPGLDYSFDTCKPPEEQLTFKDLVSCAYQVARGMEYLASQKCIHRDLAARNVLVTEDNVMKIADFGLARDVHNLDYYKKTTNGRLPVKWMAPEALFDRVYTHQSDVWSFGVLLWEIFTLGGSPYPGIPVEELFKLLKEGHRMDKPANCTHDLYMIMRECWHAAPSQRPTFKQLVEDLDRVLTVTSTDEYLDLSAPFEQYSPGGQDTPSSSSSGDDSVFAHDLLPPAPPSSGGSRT
Sequence of Mitogen-activated protein kinase 4 (Homo sapiens) (P31152 whole entry): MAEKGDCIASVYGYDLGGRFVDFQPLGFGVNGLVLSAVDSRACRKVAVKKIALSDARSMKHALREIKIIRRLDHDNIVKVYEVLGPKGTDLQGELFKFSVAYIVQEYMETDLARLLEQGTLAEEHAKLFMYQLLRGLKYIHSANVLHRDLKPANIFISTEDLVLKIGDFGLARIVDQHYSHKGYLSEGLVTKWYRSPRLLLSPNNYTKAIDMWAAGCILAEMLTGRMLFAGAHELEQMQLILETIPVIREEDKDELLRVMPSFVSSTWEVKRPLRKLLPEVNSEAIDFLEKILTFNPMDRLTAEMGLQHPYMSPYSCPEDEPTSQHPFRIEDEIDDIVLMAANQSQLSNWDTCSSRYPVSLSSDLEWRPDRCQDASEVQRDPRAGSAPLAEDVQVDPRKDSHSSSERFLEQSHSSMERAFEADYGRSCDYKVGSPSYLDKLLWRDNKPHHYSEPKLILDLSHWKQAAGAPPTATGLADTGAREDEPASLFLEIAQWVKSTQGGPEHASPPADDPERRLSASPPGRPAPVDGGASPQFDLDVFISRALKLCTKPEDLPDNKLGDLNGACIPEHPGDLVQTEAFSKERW
Sequence of Dual specificity tyrosine-phosphorylation-regulated kinase 2 (Homo sapiens) (Q92630 whole entry): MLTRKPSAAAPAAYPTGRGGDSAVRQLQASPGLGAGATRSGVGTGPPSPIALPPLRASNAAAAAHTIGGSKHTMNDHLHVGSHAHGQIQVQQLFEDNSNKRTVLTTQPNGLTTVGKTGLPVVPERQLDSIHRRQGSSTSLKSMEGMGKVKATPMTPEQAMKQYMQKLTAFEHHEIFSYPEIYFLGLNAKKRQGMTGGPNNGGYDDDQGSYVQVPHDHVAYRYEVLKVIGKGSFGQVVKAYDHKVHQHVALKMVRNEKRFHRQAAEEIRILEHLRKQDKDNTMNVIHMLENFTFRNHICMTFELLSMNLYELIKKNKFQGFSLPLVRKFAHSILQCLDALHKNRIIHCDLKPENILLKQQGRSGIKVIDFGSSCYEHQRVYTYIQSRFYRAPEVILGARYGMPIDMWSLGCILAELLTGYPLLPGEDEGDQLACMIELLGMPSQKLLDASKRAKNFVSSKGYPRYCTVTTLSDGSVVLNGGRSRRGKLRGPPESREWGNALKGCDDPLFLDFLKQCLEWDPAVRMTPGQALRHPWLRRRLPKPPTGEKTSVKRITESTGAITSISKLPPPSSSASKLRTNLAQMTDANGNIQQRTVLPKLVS
Sequence of 5'-AMP-activated protein kinase catalytic subunit alpha-2 (Homo sapiens) (P54646 whole entry, looked up): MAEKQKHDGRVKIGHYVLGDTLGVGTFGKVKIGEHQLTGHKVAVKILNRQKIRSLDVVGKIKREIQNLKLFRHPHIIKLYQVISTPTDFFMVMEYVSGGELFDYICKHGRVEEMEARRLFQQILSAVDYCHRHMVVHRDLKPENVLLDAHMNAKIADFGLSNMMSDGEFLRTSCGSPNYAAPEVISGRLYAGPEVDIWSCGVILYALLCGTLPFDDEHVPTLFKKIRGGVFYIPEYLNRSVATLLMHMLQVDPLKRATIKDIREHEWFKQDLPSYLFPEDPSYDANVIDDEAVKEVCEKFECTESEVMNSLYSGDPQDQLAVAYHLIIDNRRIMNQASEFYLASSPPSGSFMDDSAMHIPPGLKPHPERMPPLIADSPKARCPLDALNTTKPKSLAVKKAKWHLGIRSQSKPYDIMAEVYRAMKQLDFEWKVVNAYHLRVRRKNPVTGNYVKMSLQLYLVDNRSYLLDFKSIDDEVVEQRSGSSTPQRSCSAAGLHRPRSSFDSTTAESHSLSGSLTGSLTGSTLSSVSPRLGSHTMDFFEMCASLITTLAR
Sequence of Mitogen-activated protein kinase 7 (Homo sapiens) (Q13164 2-816 limits assumed): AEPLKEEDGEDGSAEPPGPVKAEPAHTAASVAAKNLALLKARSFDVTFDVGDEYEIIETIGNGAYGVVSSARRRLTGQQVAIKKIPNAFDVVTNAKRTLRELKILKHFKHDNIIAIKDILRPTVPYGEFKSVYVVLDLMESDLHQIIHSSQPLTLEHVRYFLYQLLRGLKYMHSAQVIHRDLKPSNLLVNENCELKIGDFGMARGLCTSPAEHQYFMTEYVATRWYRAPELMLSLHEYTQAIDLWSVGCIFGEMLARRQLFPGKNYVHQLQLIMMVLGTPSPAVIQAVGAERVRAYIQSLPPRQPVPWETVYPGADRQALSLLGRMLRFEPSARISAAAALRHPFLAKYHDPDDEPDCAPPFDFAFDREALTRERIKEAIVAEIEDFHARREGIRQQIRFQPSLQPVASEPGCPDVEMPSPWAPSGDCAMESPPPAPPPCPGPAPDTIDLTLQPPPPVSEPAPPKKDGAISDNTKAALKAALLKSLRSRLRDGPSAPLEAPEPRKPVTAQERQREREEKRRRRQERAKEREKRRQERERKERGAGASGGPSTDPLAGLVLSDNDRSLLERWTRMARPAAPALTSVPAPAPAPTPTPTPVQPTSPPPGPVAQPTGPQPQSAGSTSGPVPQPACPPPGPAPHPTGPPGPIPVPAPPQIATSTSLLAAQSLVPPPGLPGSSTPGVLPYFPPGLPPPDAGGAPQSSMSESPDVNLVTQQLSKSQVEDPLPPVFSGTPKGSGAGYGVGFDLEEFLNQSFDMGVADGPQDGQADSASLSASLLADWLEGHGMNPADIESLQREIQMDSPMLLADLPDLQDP
Sequence of Aurora kinase A (Homo sapiens) (O14965 whole entry): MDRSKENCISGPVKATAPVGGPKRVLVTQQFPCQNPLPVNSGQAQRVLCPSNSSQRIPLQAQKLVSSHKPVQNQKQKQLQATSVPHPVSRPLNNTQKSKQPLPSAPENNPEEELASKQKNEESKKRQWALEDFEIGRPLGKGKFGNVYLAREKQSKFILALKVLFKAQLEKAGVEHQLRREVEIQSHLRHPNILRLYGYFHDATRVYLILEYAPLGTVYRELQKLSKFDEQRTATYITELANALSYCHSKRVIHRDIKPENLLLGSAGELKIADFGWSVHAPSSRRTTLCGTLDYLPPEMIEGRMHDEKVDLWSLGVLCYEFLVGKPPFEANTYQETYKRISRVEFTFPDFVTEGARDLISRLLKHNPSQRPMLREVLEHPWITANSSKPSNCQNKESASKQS

## CCN1CCN(Cc2ccc(NC(=O)c3ccc(C)c(C#Cc4cnc5[nH]ccc5c4)c3)cc2C(F)(F)F)CC1
[1]
  residual binding, % of control: 7.2%
[2]
  residual binding, % of control: 97%
[3]
  residual binding, % of control: 0.45%
[4]
  residual binding, % of control: 6.8%
[5]
  residual binding, % of control: 32%
[6]
  residual binding, % of control: 51%
[7]
  residual binding, % of control: 0.35%
[8]
  residual binding, % of control: 0.85%
[9]
  residual binding, % of control: 26%
[10]
  residual binding, % of control: 2.6%
[11]
  residual binding, % of control: 0.15%
[12]
  residual binding, % of control: 0.15%
[13]
  residual binding, % of control: 0.45%
[14]
  residual binding, % of control: 100%
[15]
  residual binding, % of control: 0.4%
[16]
  residual binding, % of control: 0.5%
[17]
  inhibition: 50%
[18]
  inhibition: 62%
[19]
  inhibition: 0%
[20]
  residual binding, % of control: 0%
[21]
  residual binding, % of control: 0.25%
[22]
  residual binding, % of control: 28%
[23]
  inhibition: 100%
[24]
  inhibition: 96%
[25]
  residual binding, % of control: 0%
[26]
  residual binding, % of control: 0.3%
[27]
  inhibition: 87%
[28]
  level, % of control: 0.25%
[29]
  level, % of control: 2.2%
[30]
  level, % of control: 0.05%
[31]
  % of control: 0.25%
[32]
  level, % of control: 0.3%
[33]
  level, % of control: 100%
[34]
  level, % of control: 36%
[35]
  level, % of control: 0.3%
[36]
  level, % of control: 22%
[37]
  level, % of control: 0.85%
[38]
  level, % of control: 0%
[39]
  level, % of control: 100%
[40]
  level, % of control: 0.25%

## CCN1CCN(Cc2ccc(NC(=O)c3ccc(C)c(C#Cc4cccnc4)c3)cc2C(F)(F)F)CC1
[1]
  residual binding, % of control: 18%
[2]
  residual binding, % of control: 100%
[3]
  residual binding, % of control: 0.05%
[4]
  residual binding, % of control: 3.9%
[5]
  residual binding, % of control: 15%
[6]
  residual binding, % of control: 48%
[7]
  residual binding, % of control: 0.5%
[8]
  residual binding, % of control: 8.8%
[9]
  residual binding, % of control: 100%
[10]
  residual binding, % of control: 1.8%
[11]
  residual binding, % of control: 0.3%
[12]
  residual binding, % of control: 0.05%
[13]
  residual binding, % of control: 0%
[14]
  residual binding, % of control: 100%
[15]
  residual binding, % of control: 0.4%
[16]
  residual binding, % of control: 5.2%
[17]
  inhibition: 77%
[18]
  inhibition: 81%
[19]
  inhibition: 0.25%
[20]
  residual binding, % of control: 0%
[21]
  residual binding, % of control: 0.4%
[22]
  residual binding, % of control: 62%
[23]
  inhibition: 92%
[24]
  inhibition: 100%
[25]
  residual binding, % of control: 0.05%
[26]
  residual binding, % of control: 0.45%
[27]
  inhibition: 99%
[28]
  level, % of control: 0.35%
[29]
  level, % of control: 44%
[30]
  level, % of control: 0.05%
[31]
  % of control: 0.45%
[32]
  level, % of control: 3%
[33]
  level, % of control: 100%
[34]
  level, % of control: 71%
[35]
  level, % of control: 0.35%
[36]
  level, % of control: 40%
[37]
  level, % of control: 1.2%
[38]
  level, % of control: 0%
[39]
  level, % of control: 100%
[40]
  level, % of control: 1.2%
